System: Plasmodium berghei
Assay: Luciferase/luciferin-expressing antifolate-resistant parasites were used to infect a culture of HepG2 cells that were pre-incubated with compounds. Infected hepatocytes emit light due to the luciferase reaction. Assay results are presented as the percent inhibition of light emission compared to control. […]
Type: functional
Settings: sporozoite; for IC90: read-out: LUCIFERASE INFECTION ASSAY - IC90
[1] = read-out: LUCIFERASE INFECTION ASSAY - IC50

| Compound | IC90 [µM] | IC50 [1] [µM] | further results |
| --- | --- | --- | --- |
| N#C/C(=N\Nc1cccc(C(F)(F)F)c1)C(=O)C1CC1 | 10.7 |  | IC50 (HEPG2TOX_HILL_SLOPE 1.67, HEPG2TOX_R_SQUARED 0.925, PBLUC_HILL_SLOPE 4.09, PBLUC_R_SQUARED 0.467, read-out: LUCIFERASE INFECTION ASSAY - IC50): 6.27 µM |
| Cc1nn(-c2ccc(F)cc2)c(Cl)c1/C=C1\C(=O)Nc2ccccc21 | 4.68 |  | IC50 (HEPG2TOX_HILL_SLOPE 2.09, HEPG2TOX_R_SQUARED 0.992, PBLUC_HILL_SLOPE 1.31, PBLUC_R_SQUARED 0.551, read-out: LUCIFERASE INFECTION ASSAY - IC50): 0.878 µM |
| Nc1ncc(-c2ccc(F)c(Cl)c2)cc1-c1ccc(O)cc1 | > 10.5 | > 10.5 |  |
| O=C1C=C(NCCSCc2ccccc2Cl)CC(c2ccc3c(c2)OCO3)C1 (centres undefined) | > 7.93 |  | IC50 (HEPG2TOX_HILL_SLOPE 7.83, HEPG2TOX_R_SQUARED 0.476, PBLUC_HILL_SLOPE 2.36, PBLUC_R_SQUARED 0.149, read-out: LUCIFERASE INFECTION ASSAY - IC50): 6.56 µM |
| COc1ccc(NC(=O)c2cc(-c3ccccc3)n(-c3ccccc3)c2C)cc1 | 4.38 |  | IC50 (HEPG2TOX_HILL_SLOPE 0.976, HEPG2TOX_R_SQUARED 0.937, PBLUC_HILL_SLOPE 1.32, PBLUC_R_SQUARED 0.59, read-out: LUCIFERASE INFECTION ASSAY - IC50): 0.834 µM |
| CC(C)n1c(SCC(=O)N(Cc2ccco2)C2=CCCCC2)nc2ccccc2c1=O | 9.27 |  | IC50 (FFLUC_HILL_SLOPE 16.9, FFLUC_R_SQUARED 0.338, PBLUC_HILL_SLOPE 11.7, PBLUC_R_SQUARED 0.501, read-out: LUCIFERASE INFECTION ASSAY - IC50): 7.68 µM |
| O=C(CNc1cc(C(F)(F)F)ccc1Oc1ccc(Br)cc1)NCCC1=CCCCC1 | > 10 |  | IC50 (FFLUC_HILL_SLOPE 3.47, FFLUC_R_SQUARED 0.173, PBLUC_HILL_SLOPE 15.8, PBLUC_R_SQUARED 0.057, read-out: LUCIFERASE INFECTION ASSAY - IC50): 9.79 µM |
| Cc1nn(C)c2nc(-c3cccs3)cc(C(=O)Nc3ccccc3C(=O)NCC3CCCO3)c12 (centres undefined) | > 10 |  | IC50 (PBLUC_HILL_SLOPE 3.11, PBLUC_R_SQUARED 0.411, read-out: LUCIFERASE INFECTION ASSAY - IC50): 5.11 µM |
| O=C(Nc1ccc(N2CCCC2)cn1)c1cccc(F)c1 | 0.0621 |  |  |
| O=C(/C=C/c1cn(-c2ccccc2)nc1-c1cccnc1)Nc1nc(-c2ccccn2)cs1 | 8.39 | 5.33 |  |
| O=C(Nc1nc(-c2cccs2)cs1)c1cc(-c2ccccc2)nn1-c1ccccc1 | > 10 |  | IC50 (FFLUC_HILL_SLOPE 3.07, FFLUC_R_SQUARED 0.622, PBLUC_HILL_SLOPE 1.11, PBLUC_R_SQUARED 0.202, read-out: LUCIFERASE INFECTION ASSAY - IC50): > 10 µM |
| S=C(Nc1ccc(C2=NCCO2)cc1)Nc1ccc(Cl)c(Cl)c1 | > 9.01 | > 9.01 |  |
| Cc1ccc2c(c1)C1CN(C)CCC1N2C(=O)c1cc(-c2ccc(F)cc2)nc2ccccc12 (centres undefined) | > 10 | > 10 |  |
| OC(c1cccc(C(F)(F)F)c1)c1nnc(Nc2ccccc2)s1 (centres undefined) | > 10 |  | IC50 (PBLUC_HILL_SLOPE 2.28, PBLUC_R_SQUARED 0.325, read-out: LUCIFERASE INFECTION ASSAY - IC50): 7.1 µM |
| O=C(COc1ccccc1)N1CCc2nc(NCc3cccc(Oc4ccccc4)c3)ncc2C1 | > 7.07 | > 7.07 |  |
| COc1cc(C(=O)OCC#N)ccc1OCc1c(C)noc1C | > 10 | > 10 |  |
| COc1ccc(C(=O)C2CCN(c3nn4cc(C(C)(C)C)nc4s3)CC2)cc1 | 4.16 | 3.34 |  |
| C#CCSc1nnc(-c2ccc(C(C)(C)C)cc2)n1-c1cccc(C(F)(F)F)c1 | > 7.94 | > 7.94 |  |
| O=C(NCC(=O)N1CCCC1)c1cccc2c3c([nH]c12)CCCCC3 | 3.72 |  | IC50 (PBLUC_HILL_SLOPE 19.4, PBLUC_R_SQUARED 0.17, read-out: LUCIFERASE INFECTION ASSAY - IC50): 3.32 µM |
| Cc1nc(-c2ccc(F)cc2)sc1C(=O)N1CCc2sccc2C1 | > 10 | > 10 |  |
| CC1C(=O)N(Cc2ncc(-c3ccccc3)o2)C(=O)N1c1ccc(F)cc1 (centres undefined) | > 10 | 9.72 |  |
| Cc1cc2oc(C(=O)Nc3nonc3-c3ccc(F)cc3)c(C)c2cc1Cl | > 8.55 | > 8.55 |  |
| N#CC1C(=N)Oc2c(ccc3ccccc23)C1c1ccc(Cl)cc1 (centres undefined) | > 9.92 | > 9.92 |  |

| Compound | IC90 [µM] | IC50 [1] [µM] | further results |
| --- | --- | --- | --- |
| Cc1cc(C(=O)C(C)OC(=O)C2=COCCO2)c(C)n1-c1ccc(Cl)cc1 (centres undefined) | > 10 | 6.48 |  |
| CCO/C=N/Nc1nc(C(F)(F)F)nc2c1cnn2-c1ccccc1 | > 10 |  | IC50 (FFLUC_HILL_SLOPE 12.8, FFLUC_R_SQUARED 0.468, PBLUC_HILL_SLOPE 1.59, PBLUC_R_SQUARED 0.442, read-out: LUCIFERASE INFECTION ASSAY - IC50): 4.62 µM |
| CN(C)C(CNC(=O)c1cc(C2CC2)nn1-c1ccccc1)Cc1ccccc1 (centres undefined) | > 10 | > 10 |  |
| CCCOc1ccc(C=C(c2nc3ccccc3s2)c2nc3ccccc3s2)c(O)c1 | > 10 |  | IC50 (FFLUC_HILL_SLOPE 30.4, FFLUC_R_SQUARED 0.313, read-out: LUCIFERASE INFECTION ASSAY - IC50): > 10 µM |
| COc1cc(Nc2nc(C(F)(F)F)nc3ccccc23)cc(OC)c1OC | > 10 |  | IC50 (HEPG2TOX_HILL_SLOPE 10.4, HEPG2TOX_R_SQUARED 0.414, PBLUC_HILL_SLOPE 1.58, PBLUC_R_SQUARED 0.452, read-out: LUCIFERASE INFECTION ASSAY - IC50): 4.12 µM |
| C(=N\Nc1ncnc2sc(-c3ccccc3)cc12)/c1sc(N2CCCCC2)nc1-c1cccs1 | 1.21 |  | IC50 (FFLUC_HILL_SLOPE 0.658, FFLUC_R_SQUARED 0.126, HEPG2TOX_HILL_SLOPE 2.14, HEPG2TOX_R_SQUARED 0.958, PBLUC_HILL_SLOPE 24.1, PBLUC_R_SQUARED 0.279, read-out: LUCIFERASE INFECTION ASSAY - IC50): 1.11 µM |
| Cc1sc(NC(=O)c2ccco2)c(C(c2cccc(C(F)(F)F)c2)N2CC(C)CC(C)C2)c1C (centres undefined) | > 10 | 6.14 |  |
| CN(CC(=O)Nc1ccc(-c2nc3ccccc3[nH]2)cc1)S(=O)(=O)c1cccs1 | > 10 |  | IC50 (PBLUC_HILL_SLOPE 3.6, PBLUC_R_SQUARED 0.614, read-out: LUCIFERASE INFECTION ASSAY - IC50): 8.33 µM |
| CCCn1c(C)cc(C(=O)CN(C)S(=O)(=O)c2ccc(Cl)cc2)c1C | > 10 |  | IC50 (HEPG2TOX_HILL_SLOPE 3.32, HEPG2TOX_R_SQUARED 0.751, PBLUC_HILL_SLOPE 15.5, PBLUC_R_SQUARED 0.301, read-out: LUCIFERASE INFECTION ASSAY - IC50): 9.26 µM |
| Cc1cc(C)c(C#N)c(SCc2nc(-c3ccsc3)no2)n1 | 0.328 |  | IC50 (FFLUC_HILL_SLOPE 0.467, FFLUC_R_SQUARED 0.935, PBLUC_HILL_SLOPE 1.22, PBLUC_R_SQUARED 0.907, read-out: LUCIFERASE INFECTION ASSAY - IC50): 0.0542 µM |
| CNc1cc(-c2ccc(O)cc2C)nc2ccnn12 | 8.61 |  | IC50 (HEPG2TOX_HILL_SLOPE 3.86, HEPG2TOX_R_SQUARED 0.988, PBLUC_HILL_SLOPE 1.91, PBLUC_R_SQUARED 0.706, read-out: LUCIFERASE INFECTION ASSAY - IC50): 2.73 µM |
| Cc1ccc(S(=O)(=O)NNC(=O)COc2ccc(SC(F)(F)F)cc2)cc1 | > 7.85 |  | IC50 (PBLUC_HILL_SLOPE 0.658, PBLUC_R_SQUARED 0.0672, read-out: LUCIFERASE INFECTION ASSAY - IC50): > 7.85 µM |
| O=C(O)COc1ccccc1/C=C1\NC(=S)NC1=O | > 10 | > 10 |  |
| CCN(CC)CCNC(=O)c1c(C)oc2c1C(=O)c1ccccc1C2=O | 1.15 |  | IC50 (HEPG2TOX_HILL_SLOPE 5.67, HEPG2TOX_R_SQUARED 0.985, PBLUC_HILL_SLOPE 0.945, PBLUC_R_SQUARED 0.645, read-out: LUCIFERASE INFECTION ASSAY - IC50): 0.112 µM |
| CCCc1c(C)[nH]c2[nH]n(-c3nc(C)cc(C)n3)c(=O)c2c1=O | > 10.5 |  | IC50 (PBLUC_HILL_SLOPE 2.87, PBLUC_R_SQUARED 0.443, read-out: LUCIFERASE INFECTION ASSAY - IC50): > 10.5 µM |
| C#Cc1cccc(NC(=O)c2ccc(C(C)(C)C)s2)c1 | 8.24 |  | IC50 (FFLUC_HILL_SLOPE 0.741, FFLUC_R_SQUARED 0.211, PBLUC_HILL_SLOPE 2.38, PBLUC_R_SQUARED 0.594, read-out: LUCIFERASE INFECTION ASSAY - IC50): 3.28 µM |
| CN(C)C(=O)c1ccc(-c2cc3c(Nc4cccc(C(F)(F)F)c4)nccc3n2C)cc1 | 6.54 |  | IC50 (PBLUC_HILL_SLOPE 4.75, PBLUC_R_SQUARED 0.5, read-out: LUCIFERASE INFECTION ASSAY - IC50): 4.12 µM |
| Cc1ccc2[nH]c(-c3ccccc3O)nc2c1 | 1.78 |  | IC50 (HEPG2TOX_HILL_SLOPE 1.55, HEPG2TOX_R_SQUARED 0.794, PBLUC_HILL_SLOPE 15.6, PBLUC_R_SQUARED 0.425, read-out: LUCIFERASE INFECTION ASSAY - IC50): 1.54 µM |
| CC1=CC(C)(C)N2C(=O)C3(NCCc4c3[nH]c3ccccc43)c3cc(C)cc1c32 (centres undefined) | 3.21 |  | IC50 (HEPG2TOX_HILL_SLOPE 3.19, HEPG2TOX_R_SQUARED 0.903, PBLUC_HILL_SLOPE 11.5, PBLUC_R_SQUARED 0.604, read-out: LUCIFERASE INFECTION ASSAY - IC50): 2.66 µM |
| CCC(C)(C)C1CCC(NC(=O)c2ccc(OC)c(OC)c2OC)CC1 (centres undefined) | > 10 | > 10 |  |
| Brc1ccc(-c2csc3ncnc(NCc4ccc(-n5ccnc5)nc4)c23)cc1 | > 10 |  | IC50 (HEPG2TOX_HILL_SLOPE 1.16, HEPG2TOX_R_SQUARED 0.868, read-out: LUCIFERASE INFECTION ASSAY - IC50): > 10 µM |
| Cn1c(Cc2ccccc2)ns/c1=N\C(=Nc1ccccc1)c1ccccc1 | > 10 | > 10 |  |

— ChEMBL document CHEMBL4483862, “Open-source discovery of chemical leads for next-generation chemoprotective antimalarials” (2018)
